Earlier results in patent publication US20250000823A1, “METHODS AND COMPOSITIONS FOR TREATING CONDITIONS ASSOCIATED WITH CENTRAL HYPOVENTILATION” (APNIMED, INC. (DELAWARE), priority 2021, published 2025).

System: patients with OHS
Conditions: acetazolamide alone

CC(=O)Nc1nnc(S(N)(=O)=O)s1 [Acetazolamide, N-(5-Sulfamoyl-1,3,4-thiadiazol-2-yl)acetamide]
alveolar ventilation: improve alveolar ventilation
